Results: US20220167618A1, “PESTICIDALLY ACTIVE AZOLE-AMIDE COMPOUNDS” (SYNGENTA CROP PROTECTION AG, priority 2019, published 2022)
Blank lines part the entries; values can stand above or below the compound they belong to.

What was measured:
[1] = system: Diabrotica balteata (Corn Root Worm); assay: Example B1: Diabrotica balteata (corn root worm), sprayed maize sprouts; format: in vivo; details: 96 h, application rate 200 ppm, L2 larvae, 4 days after infestation, read-out: control in at least one of the two categories (mortality or growth inhibition)
Experimental: Example B1: Diabrotica balteata (Corn Root Worm)
Maize sprouts placed onto an agar layer in 24-well microtiter plates were treated with aqueous test solutions prepared from 10′000 ppm DMSO stock solutions by spraying. After drying, the plates were infested with L2 larvae (6 to 10 per well). The samples were assessed for mortality and growth inhibition in comparison to untreated samples 4 days after infestation.

[2] = system: Spodoptera littoralis (Egyptian Cotton Leaf Worm); assay: Example B9: Spodoptera littoralis (Egyptian cotton leaf worm), sprayed cotton leaf discs; format: in vivo; details: foliar, 72 h, application rate 200 ppm, L1 larvae, 3 days after infestation, read-out: control in at least one of the three categories (mortality, anto-feedant or growth inhibition)
[3] = system: Plutella xylostella (Diamondback Moth); assay: Example B13: Plutella xylostella (diamondback moth), artificial diet, 96-well; format: in vivo; details: 216 h, application rate 500 ppm, eggs/L1 larvae, 9 days after infestation
Experimental: Example B13: Plutella xylostella (Diamondback Moth)
96-well microtiter plates containing artificial diet were treated with aqueous test solutions, prepared from 10′000 ppm DMSO stock solutions, by a liquid handling robot. After drying, eggs (˜30 per well) were infested onto a netted lid which was suspended above the diet. The eggs hatch and L1 larvae move down to the diet. The samples were assessed for mortality 9 days after infestation.

[4] = system: Chilo suppressalis (Striped Rice Stemborer); assay: Example B4: Chilo suppressalis (striped rice stemborer), artificial diet; format: in vivo; details: 144 h, application rate 200 ppm, L2 larvae, 6 days after infestation, read-out: control in at least one of the three categories (mortality, anti-feedant or growth inhibition)
Experimental: Example B4: Chilo suppressalis (Striped Rice Stemborer)
24-well microtiter plates with artificial diet were treated with aqueous test solutions prepared from 10′000 ppm DMSO stock solutions by pipetting. After drying, the plates were infested with L2 larvae (6-8 per well). The samples were assessed for mortality, anti-feeding effect, and growth inhibition in comparison to untreated samples 6 days after infestation. Control of Chilo suppressalis by a test sample is given when at least one of the categories mortality, anti-feedant effect, and growth inhibition is higher than the untreated sample.

[5] = system: Plutella xylostella (Diamond Back Moth); assay: Example B5: Plutella xylostella (diamond back moth), artificial diet, 24-well; format: in vivo; details: 192 h, application rate 200 ppm, eggs, 8 days after infestation, read-out: control in at least one of the two categories (mortality or growth inhibition)
Experimental: Example B5: Plutella xylostella (Diamond Back Moth)
24-well microtiter plates with artificial diet were treated with aqueous test solutions prepared from 10′000 ppm DMSO stock solutions by pipetting. After drying, Plutella eggs were pipetted through a plastic stencil onto a gel blotting paper and the plate was closed with it. The samples were assessed for mortality and growth inhibition in comparison to untreated samples 8 days after infestation.

Structure (SMILES): CC(NC(=O)c1cc(C2CC2)cc(C(F)(F)F)c1)c1nc(Br)nn1-c1ncc(OCC(F)(F)F)cn1 (stereo not drawn) [Compound P5, N-[1-[5-bromo-2-[5-(2,2,2-trifluoroethoxy)pyrimidin-2-yl]-1,2,4-triazol-3-yl]ethyl]-3-cyclopropyl-5-(trifluoromethyl)benzamide]
percent control (mortality or growth inhibition) at 200 ppm [1]: ≥ 80%
percent control (mortality, anti-feedant or growth inhibition) at 200 ppm [2]: ≥ 80%
mortality at 500 ppm [3]: ≥ 80%
percent control (mortality, anti-feedant or growth inhibition) at 200 ppm [4]: ≥ 80%
percent control (mortality or growth inhibition) at 200 ppm [5]: ≥ 80%

Structure (SMILES): CC(NC(=O)c1cc(C2CC2(F)F)cc(C(F)(F)F)c1)c1nc(Br)nn1-c1ccc(C#N)cn1 (stereo not drawn) [Compound P6, N-[1-[5-bromo-2-(5-cyano-2-pyridyl)-1,2,4-triazol-3-yl]ethyl]-3-(2,2-difluorocyclopropyl)-5-(trifluoromethyl)benzamide]
percent control (mortality or growth inhibition) at 200 ppm [1]: ≥ 80%
percent control (mortality, anti-feedant or growth inhibition) at 200 ppm [2]: ≥ 80%
mortality at 500 ppm [3]: ≥ 80%
percent control (mortality, anti-feedant or growth inhibition) at 200 ppm [4]: ≥ 80%
percent control (mortality or growth inhibition) at 200 ppm [5]: ≥ 80%

Structure (SMILES): CC(NC(=O)c1cc(C2CC2(F)F)cc(C(F)(F)F)c1)c1nc(Br)nn1-c1ncc(OCC(F)F)cn1 (stereo not drawn) [Compound P8, N-[1-[5-bromo-2-[5-(2,2-difluoroethoxy)pyrimidin-2-yl]-1,2,4-triazol-3-yl]ethyl]-3-(2,2-difluorocyclopropyl)-5-(trifluoromethyl)benzamide]
percent control (mortality or growth inhibition) at 200 ppm [1]: ≥ 80%
percent control (mortality, anti-feedant or growth inhibition) at 200 ppm [2]: ≥ 80%
mortality at 500 ppm [3]: ≥ 80%
percent control (mortality, anti-feedant or growth inhibition) at 200 ppm [4]: ≥ 80%
percent control (mortality or growth inhibition) at 200 ppm [5]: ≥ 80%

Structure (SMILES): CC(NC(=O)c1cc(C2CC2(F)F)cc(C(F)(F)F)c1)c1nc(Br)nn1-c1ncc(OC(F)F)cn1 (stereo not drawn) [Compound P12, N-[1-[5-bromo-2-[5-(difluoromethoxy)pyrimidin-2-yl]-1,2,4-triazol-3-yl]ethyl]-3-(2,2-difluorocyclopropyl)-5-(trifluoromethyl)benzamide]
percent control (mortality or growth inhibition) at 200 ppm [1]: ≥ 80%
percent control (mortality, anti-feedant or growth inhibition) at 200 ppm [2]: ≥ 80%
mortality at 500 ppm [3]: ≥ 80%
percent control (mortality, anti-feedant or growth inhibition) at 200 ppm [4]: ≥ 80%
percent control (mortality or growth inhibition) at 200 ppm [5]: ≥ 80%

Structure (SMILES): CC(NC(=O)c1cc(C2CC2)cc(C(F)(F)F)c1)c1nc(Br)nn1-c1ncc(OCC(F)F)cn1 (stereo not drawn) [Compound P18, N-[1-[5-bromo-2-[5-(2,2-difluoroethoxy)pyrimidin-2-yl]-1,2,4-triazol-3-yl]ethyl]-3-cyclopropyl-5-(trifluoromethyl)benzamide]
percent control (mortality or growth inhibition) at 200 ppm [1]: ≥ 80%
percent control (mortality, anti-feedant or growth inhibition) at 200 ppm [2]: ≥ 80%
mortality at 500 ppm [3]: ≥ 80%
percent control (mortality, anti-feedant or growth inhibition) at 200 ppm [4]: ≥ 80%
percent control (mortality or growth inhibition) at 200 ppm [5]: ≥ 80%

Structure (SMILES): CC(NC(=O)c1cc(C(F)(F)F)cc(C(F)(F)C2CC2)c1)c1nc(Br)nn1-c1ccc(C#N)cn1 (stereo not drawn) [Compound P21, N-[1-[5-bromo-2-(5-cyano-2-pyridyl)-1,2,4-triazol-3-yl]ethyl]-3-[cyclopropyl(difluoro)methyl]-5-(trifluoromethyl)benzamide]
percent control (mortality or growth inhibition) at 200 ppm [1]: ≥ 80%
percent control (mortality, anti-feedant or growth inhibition) at 200 ppm [2]: ≥ 80%
percent control (mortality, anti-feedant or growth inhibition) at 200 ppm [4]: ≥ 80%
percent control (mortality or growth inhibition) at 200 ppm [5]: ≥ 80%

Structure (SMILES): CC(NC(=O)c1cc(C2CC2(F)F)cc(C(F)(F)F)c1)c1nc(Br)nn1-c1ccc(OCC(F)F)cn1 (stereo not drawn) [Compound P22, N-[1-[5-bromo-2-[5-(2,2-difluoroethoxy)-2-pyridyl]-1,2,4-triazol-3-yl]ethyl]-3-(2,2-difluorocyclopropyl)-5-(trifluoromethyl)benzamide]
percent control (mortality, anti-feedant or growth inhibition) at 200 ppm [2]: ≥ 80%
mortality at 500 ppm [3]: ≥ 80%
percent control (mortality, anti-feedant or growth inhibition) at 200 ppm [4]: ≥ 80%
percent control (mortality or growth inhibition) at 200 ppm [5]: ≥ 80%

Structure (SMILES): CC(NC(=O)c1cc(C(F)(F)F)cc(S(=O)(=O)C(F)(F)F)c1)c1nc(Br)nn1-c1ncc(OCC(F)F)cn1 (stereo not drawn) [Compound P24, N-[1-[5-bromo-2-[5-(2,2-difluoroethoxy)pyrimidin-2-yl]-1,2,4-triazol-3-yl]ethyl]-3-(trifluoromethyl)-5-(trifluoromethylsulfonyl) benzamide]
percent control (mortality, anti-feedant or growth inhibition) at 200 ppm [2]: ≥ 80%
mortality at 500 ppm [3]: ≥ 80%
percent control (mortality, anti-feedant or growth inhibition) at 200 ppm [4]: ≥ 80%
percent control (mortality or growth inhibition) at 200 ppm [5]: ≥ 80%

Structure (SMILES): CC(NC(=O)c1cc(C2CC2)cc(C(F)(F)F)c1)c1nc(Br)nn1-c1ccc(OC(F)F)cn1 (stereo not drawn) [Compound P25, N-[1-[5-bromo-2-[5-(difluoromethoxy)-2-pyridyl]-1,2,4-triazol-3-yl]ethyl]-3-cyclopropyl-5-(trifluoromethyl)benzamide]
percent control (mortality or growth inhibition) at 200 ppm [1]: ≥ 80%
percent control (mortality, anti-feedant or growth inhibition) at 200 ppm [2]: ≥ 80%
percent control (mortality, anti-feedant or growth inhibition) at 200 ppm [4]: ≥ 80%
percent control (mortality or growth inhibition) at 200 ppm [5]: ≥ 80%

Structure (SMILES): CC(NC(=O)c1cc(C2CC2)cc(C(F)(F)F)c1)c1nc(Br)nn1-c1ccc(OCC(F)F)cn1 (stereo not drawn) [Compound P27, N-[1-[5-bromo-2-[5-(2,2-difluoroethoxy)-2-pyridyl]-1,2,4-triazol-3-yl]ethyl]-3-cyclopropyl-5-(trifluoromethyl)benzamide]
mortality at 500 ppm [3]: ≥ 80%
percent control (mortality, anti-feedant or growth inhibition) at 200 ppm [4]: ≥ 80%
percent control (mortality or growth inhibition) at 200 ppm [5]: ≥ 80%

melting point: 152 to 154 °C
Structure (SMILES): CC(NC(=O)c1cc(C(F)(F)F)nc(C2(C#N)CC2)c1)c1nc(Br)nn1-c1ccc(OC(F)F)cn1 (stereo not drawn) [Compound P30, N-[1-[5-bromo-2-[5-(difluoromethoxy)-2-pyridyl]-1,2,4-triazol-3-yl]ethyl]-2-(1-cyanocyclopropyl)-6-(trifluoromethyl)pyridine-4-carboxamide]

melting point: 140 to 142 °C
Structure (SMILES): CC(NC(=O)c1cc(C(F)(F)F)cc(C(F)(F)C2CC2)c1)c1nc(Br)nn1-c1ccc(OCC(F)F)cn1 (stereo not drawn) [Compound P31, N-[1-[5-bromo-2-[5-(2,2-difluoroethoxy)-2-pyridyl]-1,2,4-triazol-3-yl]ethyl]-3-[cyclopropyl(difluoro)methyl]-5-(trifluoromethyl)benzamide]

melting point: 147 to 149 °C
Structure (SMILES): CC(NC(=O)c1cc(C(F)(F)F)nc(C2(C#N)CC2)c1)c1nc(Br)nn1-c1ccc(OCC(F)F)cn1 (stereo not drawn) [Compound P32, N-[1-[5-bromo-2-[5-(2,2-difluoroethoxy)-2-pyridyl]-1,2,4-triazol-3-yl]ethyl]-2-(1-cyanocyclopropyl)-6-(trifluoromethyl)pyridine-4-carboxamide]

melting point: 82 to 84 °C
Structure (SMILES): CC(NC(=O)c1cc(C(F)(F)F)nc(C2(C#N)CC2)c1)c1nc(Br)nn1-c1ccc(OCC(F)(F)F)cn1 (stereo not drawn) [Compound P33, N-[1-[5-bromo-2-[5-(2,2,2-trifluoroethoxy)-2-pyridyl]-1,2,4-triazol-3-yl]ethyl]-2-(1-cyanocyclopropyl)-6-(trifluoromethyl)pyridine-4-carboxamide]

Structure (SMILES): CC(NC(=O)c1cc(C(F)(F)F)cc(C(C)(C)C#N)c1)c1nc(Br)nn1-c1ncc(OCC(F)F)cn1 (stereo not drawn) [Compound P38, N-[1-[5-bromo-2-[5-(2,2-difluoroethoxy)pyrimidin-2-yl]-1,2,4-triazol-3-yl]ethyl]-3-(1-cyano-1-methyl-ethyl)-5-(trifluoromethyl)benzamide]
percent control (mortality or growth inhibition) at 200 ppm [1]: ≥ 80%
percent control (mortality, anti-feedant or growth inhibition) at 200 ppm [2]: ≥ 80%
percent control (mortality, anti-feedant or growth inhibition) at 200 ppm [4]: ≥ 80%
percent control (mortality or growth inhibition) at 200 ppm [5]: ≥ 80%

Structure (SMILES): CC(NC(=O)c1cc(C(F)(F)F)cc(C(C)(C)C#N)c1)c1nc(Br)nn1-c1ncc(OCC(F)(F)F)cn1 (stereo not drawn) [Compound P39, N-[1-[5-bromo-2-[5-(2,2,2-trifluoroethoxy)pyrimidin-2-yl]-1,2,4-triazol-3-yl]ethyl]-3-(1-cyano-1-methyl-ethyl)-5-(trifluoromethyl)benzamide]
percent control (mortality or growth inhibition) at 200 ppm [1]: ≥ 80%
percent control (mortality, anti-feedant or growth inhibition) at 200 ppm [2]: ≥ 80%
percent control (mortality, anti-feedant or growth inhibition) at 200 ppm [4]: ≥ 80%
percent control (mortality or growth inhibition) at 200 ppm [5]: ≥ 80%

Structure (SMILES): CC(NC(=O)c1cc(C(F)(F)F)cc(C(C)(C)C#N)c1)c1nc(Br)nn1-c1ccc(OCC(F)F)cn1 (stereo not drawn) [Compound P40, N-[1-[5-bromo-2-[5-(2,2-difluoroethoxy)-2-pyridyl]-1,2,4-triazol-3-yl]ethyl]-3-(1-cyano-1-methyl-ethyl)-5-(trifluoromethyl)benzamide]
percent control (mortality, anti-feedant or growth inhibition) at 200 ppm [2]: ≥ 80%
mortality at 500 ppm [3]: ≥ 80%
percent control (mortality, anti-feedant or growth inhibition) at 200 ppm [4]: ≥ 80%
percent control (mortality or growth inhibition) at 200 ppm [5]: ≥ 80%
